The assay addresses T1, TEL-CSF1R-BaF3 (Homo sapiens, UniProt P07333).
T1 construct: expressed in transfected cells; host or cells: mouse BaF3 cells (ATCC), retroviral transduction with MSCV-Puro vector, IL-3 withdrawn; the other entry of the earlier key: ETV6 (P41212, Transcription factor ETV6)
T1 sequence (P07333 582-910 limits assumed): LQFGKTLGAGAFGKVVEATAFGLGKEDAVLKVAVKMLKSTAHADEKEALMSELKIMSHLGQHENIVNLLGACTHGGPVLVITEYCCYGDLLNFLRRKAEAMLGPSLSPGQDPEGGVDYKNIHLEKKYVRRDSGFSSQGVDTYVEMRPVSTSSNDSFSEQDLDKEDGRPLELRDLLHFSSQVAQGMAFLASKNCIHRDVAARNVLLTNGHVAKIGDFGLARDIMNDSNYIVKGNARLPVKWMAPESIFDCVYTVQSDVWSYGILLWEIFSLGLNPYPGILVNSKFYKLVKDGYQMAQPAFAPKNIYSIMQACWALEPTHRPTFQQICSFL
The assay is described as follows: Proliferation of TEL-CSF1R-BaF3 cells (CCK-8, 72 hours). The format is cell-based. The following applies: 72 hours incubation, CCK-8. Here is the method: The incubated cells were detected by CCK-8 (purchased from MedChem Express, China) cell viability detection kit (CCK-8 can be reduced by dehydrogenases in living cells to a highly water-soluble yellow formazan product, and the amount of the generated formazan product is proportional to the number of living cells). The number of living cells was quantified by a microplate reader, and the GI50 for each compound was calculated (the results are shown in Table 2).
The construction method of the TEL-CSF1R-BaF3 cell line (a cell line stably expressing CSF1R kinase) was as follows: the sequence of human CSF1R kinase region was amplified by PCR and inserted into the MSCV-Puro vector (Clontech) with an N-terminal TEL fragment, and stably transferred into mouse BaF3 cells (purchased from ATCC, USA) by a retroviral method, and IL-3 growth factor was removed, finally a cell line dependent on CSF1R transferred protein was obtained.

On to `COc1cc2nccc(Oc3ccc(NC(=O)Cc4ccc(Cl)c(C(F)(F)F)c4)cc3)c2cc1OC` [Example 2, N-(4-((6,7-dimethoxyquinolin-4-yl)oxy)phenyl)-2-(4-chloro-3-(trifluoromethyl)phenyl)-acetamide], for which growth was halved (GI50) at 0.003 µM.
